Results filed as inconclusive are left out. The source made the active and inactive calls. No rule for the calls is given here.

The first assay deals with non-replicating M. tuberculosis, luciferase reporter luminescence. The experiment in a line: inhibitors of non-replicating M. tuberculosis, dose response, luciferase, dry powder (AID 743183).
Details: not given
Consider `O=C(COc1c(Br)cc(Br)c2cccnc12)N1CCCCC1`, for which the AC90 was 7.78 µM.
In the case of `CCCOC(=O)c1ccc(NC(=O)c2ccc(Br)o2)cc1`, the AC90 is 7.14 µM.
Consider `O=C(NCc1cccs1)c1ccc(Br)o1`, for which the AC90 is 5.8 µM.
Still for that read-out and setting: as for `O=C(COc1cccc2ccccc12)Nc1nc2ccccc2[nH]1`, the figure is 6.61 µM.
Same read-out and setting: as for `COC(=O)COc1cccc(NC(=O)c2ccc(Cl)cc2)c1`, the figure is 11.7 µM; as for `Cc1nnc(NC(=O)c2ccc3ccccc3c2)o1`, 0.372 µM; as for `c1ccc(Nc2nc(-c3ccccn3)cs2)cc1`, 1.95 µM.
Still for that read-out and setting: in the case of `CCOC(=O)c1cc(-c2csc(COc3ccccc3)n2)on1` it was 6.95 µM.
For the compound `CCCCN(C/C=C/c1ccccc1OC)Cc1ccccc1`, the AC90 is 24.6 µM.
Take `Brc1c(-c2ccc3c(c2)OCO3)nc2ncccn12`: the AC90 was 12.9 µM.
On the same count and under the same terms, in the case of `NC1CCN(c2c(F)cc3c(=O)c(C(=O)O)cn(C4CC4)c3c2Cl)C1` (configuration not stated) it was 2.04 µM; in that of `Cc1cccc(C)c1N1C(=O)CC(N2CCSCC2)C1=O` (configuration not stated), 4.7 µM.
With `COC(=O)COc1ccc2c(=O)c(Oc3ccccc3)c(C)oc2c1`, the AC90 is 2.94 µM.
As for `Clc1cccc(CNCCNCc2cccc(Cl)c2)c1`, the AC90 is 19.4 µM.
Same read-out and setting: as for `Fc1ccc(-c2ccc(CNCc3ccccn3)o2)cc1Cl`, the figure is 13.7 µM; as for `CCOC(=O)COc1ccc2c(c1)C(=O)CC1(CCCCC1)O2`, 5.77 µM; as for `CS(=O)(=O)Cc1nc2ccccc2oc1=O`, 38.6 µM.
In the case of `Cc1cc(NC(=O)C2CCCCC2)n(-c2nc3ccccc3[nH]2)n1`, the AC90 is 12.9 µM.
With `O=C(CCN1CCC(c2cccs2)=N1)c1cccs1`, the AC90 is 14.3 µM.
Still for that read-out and setting: in the case of `CCOCCOC(=O)COc1ccc2c(-c3ccccc3)cc(=O)oc2c1` it was 8.82 µM; in that of `Clc1cccc(-c2ccc(CNCc3ccccn3)o2)c1`, 16.3 µM; in that of `CCOC(=O)COc1ccc2c(=O)cc(-c3ccccc3)oc2c1`, 2.9 µM.
On the same count and under the same terms, in the case of `C=CCn1c(NC(=O)c2ccccc2)nc2ccccc21` it was 7.69 µM; in that of `Cc1cc(C)n2nc(S(=O)(=O)Nc3c(Cl)cccc3Cl)nc2n1`, 5.45 µM; in that of `CCOC(=O)COc1ccc(C(=O)NC2CCCCC2)cc1`, 8.93 µM.
For the compound `CCOC(=O)COc1ccc2c(=O)c(-c3ccccc3)coc2c1`, the AC90 is 3.65 µM.
Same read-out and setting: in the case of `O=C(NC1CC2CCC1C2)C1COc2ccccc2O1` (configuration not stated) it was 1.39 µM.
With `O=C(Nc1nc2ccccc2[nH]1)c1cccc(Cl)c1`, the AC90 was 4.96 µM.
The same measure, in the same setting: as for `CCc1ccc(OCCCC(=O)NCc2ccco2)cc1`, the figure is 31.8 µM; as for `Cc1cccc(Cn2ccc(NC(=O)c3ccc4c(c3)OCO4)n2)c1`, 9.73 µM; as for `CCOC(=O)c1cc(-c2csc(COc3ccccc3Cl)n2)on1`, 4.52 µM.
For the compound `O=C(CCc1ccccc1)NC1C2CC3CC(C2)CC1C3` (configuration not stated), the AC90 is 10.3 µM.
Consider `NC(=O)C1(N2CCCCC2)CCN(C2CC(=O)N(CCc3ccccc3)C2=O)CC1` (configuration not stated), for which the AC90 is 22.3 µM.

Tested on in a further assay: not listed separately
The description is as above. The note with it: non-replicating M. tuberculosis, luciferase reporter luminescence; at 38 µM (top of the series). Background: In a reporter assay the amount or activity of a reporter protein is the signal.
As for `O=C(OCc1ccc(Cl)c(Cl)c1)c1ccccn1`, the activity change, negative = inhibition was -46.6% (inactive).
`N#Cc1nc(-c2cccs2)oc1NCCc1ccccc1`: the activity change, negative = inhibition is -87.4% (inactive).
With `CCOC(=O)CNC(=O)N1c2ccccc2Sc2ccccc21`, the activity change, negative = inhibition is -75.4% (inactive).
For the compound `Cc1ccc(C)c(-c2csc(NC(=O)c3cnccn3)n2)c1`, the activity change, negative = inhibition was -66.6% (inactive).

For the origin of these results see PubChem BioAssay AID743183 (Broad Institute, 2013).
